In article PMC6332508, “A Promising PET Tracer for Imaging of α7 Nicotinic Acetylcholine Receptors in the Brain: Design, Synthesis, and in Vivo Evaluation of a Dibenzothiophene-Based Radioligand” (Molecules, 2015):

Tests used:
[1] = Metabolite analysis in pig plasma; type: in vivo, pigs
Procedure: To control the quality of the K[^18F]F-Kryptofix®222/K2CO3-complex, reactions using ethylene glycol ditosylate were performed randomly. Radio-TLC of [^18F]10a and [^18F]10b was performed on Polygram® ALOX N/UV254 plates (Macherey-Nagel GmbH & Co. KG) with dichloromethane/methanol (9:1, v/v). The spots of the references were visualized using UV light at 254 nm.
Arterial blood was sampled using a peristaltic pump during the first 20 min of the scan followed by manual sampling at 25, 30, 40, 50, 60, 90, 120, 150, 180, 210, and 240 min after injection. Plasma was obtained by centrifugation (13,000 rpm, 2 min at 21 °C) and total radioactivity concentration was measured using a gamma-counter (1470 Wizard; PerkinElmer, Shelton, CT, USA) cross-calibrated to the PET scanner. […]
The plasma input function was corrected for the presence of radioactive metabolites by determination of the parent fraction as described previously. Plasma samples were de-proteinized by addition of ice-cold acetonitrile (500 μL MeCN/100 μL plasma) followed by centrifugation (13,000 rpm, 10 min). Aliquots of the original plasma sample and of the supernatant obtained after centrifugation were counted for radioactivity, and the supernatant was analyzed by radio-HPLC following the chromatographic methods described in quality control. The parent fraction as a function of time was fitted iteratively with the Levenberg-Marquardt algorithm, including decay correction, to calculate metabolite corrected input function.

[2] = In vitro radiochemical stability; type: physicochemical; conditions: 40 °C, up to 90 min
Procedure: in vitro radiochemical stability of [^18F]10a was investigated in 0.9% NaCl solution, PBS (pH 7.2), and 0.01 M Tris-HCl (pH 7.4 at 21 °C) at 40 °C and in EtOH at room temperature for up to 90 min. Samples were taken at 15, 30, 60, and 90 min of incubation time and analyzed by radio-TLC and radio-HPLC. Log D7.2 of [^18F]10a was experimentally determined in n-octanol/phosphate-buffered saline (PBS; 0.01 M, pH 7.2) at room temperature by the shake-flask method in multiple distribution. Measurement was performed twice in triplicate.

## O=S1(=O)c2ccc([18F])cc2-c2ccc(N3CCN4CCC3CC4)cc21 [[^18F]10a]
[1]; 2 min p.i.
  Parent fraction of total radioactivity in plasma: 88%
[1]; 60 min p.i.
  Parent fraction of total radioactivity in plasma: 24%
[1]; 120 min p.i.
  Parent fraction of total radioactivity in plasma: 19%
[2]
  stability in physiological solutions and organic solvents: stable
